# From US12459918B2, “Isoquinolinone derivatives serving as rock protein kinase inhibitors and use thereof” (GUANGZHOU OCUSUN OPHTHALMIC BIOTECHNOLOGY CO., LTD., priority 2019, dated 2025)
# Tested on: New Zealand rabbits with acute ocular hypertension
# Test: Intraocular pressure reduction experiment in New Zealand rabbits with acute ocular hypertension, experiment operation 1
# Format: in vivo
# Conditions: for Intraocular pressure in the left eye: left eye (not modeled); for Intraocular pressure in the right eye: right eye (induced ocular hypertension)
# Excerpt: Experimental Example 3. Intraocular Pressure Reduction Experiment in New Zealand Rabbits with Acute Ocular Hypertension
# Acute ocular hypertension of rabbits were induced by anterior chamber injection of a viscoelastic agent and the intraocular pressure reduction action of compound 60 and compound 63 at different concentrations were explored by eye-drop administration.
# Male New Zealand rabbits, aged 97-127 days, weighted 2.5-3.4 kg, purchased from PizhouDongfang Breeding Co. Ltd.
# Male New Zealand rabbits were randomly divided into 8 rabbits/per group according to body weight using a computer-generated randomization method. The animals in each group were injected with medical sodium hyaluronate gel in the anterior chamber of right eye in a single dose, 100 μL/eye, to induce ocular hypertension. In 5-15 minutes, 3 hours and 6 hours after right eye modeling, both eyes were dropped with a solvent, K-115 or test samples (compound 60 at different concentrations) at a volume of 50 μL/eye and intraocular pressure of the animals was measured before administration and in 1, 2, 4, 6, 8 and 10 hours after administration, respectively.
# [1] = 2.5 mg/mL both eyes, 1 hour after administration
# [2] = 2.5 mg/mL both eyes, 2 hours after administration
# [3] = 2.5 mg/mL both eyes, 4 hours after administration
# [4] = 2.5 mg/mL both eyes, 6 hours after administration
# [5] = 2.5 mg/mL both eyes, 8 hours after administration
# [6] = 2.5 mg/mL both eyes, 10 hours after administration
# [7] = 2.5 mg/mL both eyes, before administration
# [8] = 5.0 mg/mL both eyes, 1 hour after administration
# [9] = 5.0 mg/mL both eyes, 2 hours after administration
# [10] = 5.0 mg/mL both eyes, 4 hours after administration
# [11] = 5.0 mg/mL both eyes, 6 hours after administration
# [12] = 5.0 mg/mL both eyes, 8 hours after administration
# [13] = 5.0 mg/mL both eyes, 10 hours after administration
# [14] = 5.0 mg/mL both eyes, before administration
# [15] = 10 mg/mL both eyes, 1 hour after administration
# [16] = 10 mg/mL both eyes, 2 hours after administration
# [17] = 10 mg/mL both eyes, 4 hours after administration
# [18] = 10 mg/mL both eyes, 6 hours after administration
# [19] = 10 mg/mL both eyes, 8 hours after administration
# [20] = 10 mg/mL both eyes, 10 hours after administration
# [21] = 10 mg/mL both eyes, before administration
smiles,measurement,setting,value
Cc1cn(COC(=O)c2ccccc2)c(=O)c2cccc(S(=O)(=O)N3CCC(N)C3)c12 (stereo not drawn) [Compound 60],Intraocular pressure in the left eye,[1],5.00 mmHg
same,Intraocular pressure in the left eye,[2],6.63 mmHg
same,Intraocular pressure in the left eye,[3],8.29 mmHg
same,Intraocular pressure in the left eye,[4],10.71 mmHg
same,Intraocular pressure in the left eye,[5],12.17 mmHg
same,Intraocular pressure in the left eye,[6],12.00 mmHg
same,Intraocular pressure in the left eye,[7],12.00 mmHg
same,Intraocular pressure in the right eye,[1],22.33 mmHg
same,Intraocular pressure in the right eye,[2],19.75 mmHg
same,Intraocular pressure in the right eye,[3],20.29 mmHg
same,Intraocular pressure in the right eye,[4],17.00 mmHg
same,Intraocular pressure in the right eye,[5],14.54 mmHg
same,Intraocular pressure in the right eye,[6],12.54 mmHg
same,Intraocular pressure in the right eye,[7],12.54 mmHg
same,Intraocular pressure in the left eye,[8],4.96 mmHg
same,Intraocular pressure in the left eye,[9],5.96 mmHg
same,Intraocular pressure in the left eye,[10],8.29 mmHg
same,Intraocular pressure in the left eye,[11],11.21 mmHg
same,Intraocular pressure in the left eye,[12],11.46 mmHg
same,Intraocular pressure in the left eye,[13],11.75 mmHg
same,Intraocular pressure in the left eye,[14],11.75 mmHg
same,Intraocular pressure in the right eye,[8],21.00 mmHg
same,Intraocular pressure in the right eye,[9],16.29 mmHg
same,Intraocular pressure in the right eye,[10],16.75 mmHg
same,Intraocular pressure in the right eye,[11],14.88 mmHg
same,Intraocular pressure in the right eye,[12],13.08 mmHg
same,Intraocular pressure in the right eye,[13],11.25 mmHg
same,Intraocular pressure in the right eye,[14],11.25 mmHg
same,Intraocular pressure in the left eye,[15],4.63 mmHg
same,Intraocular pressure in the left eye,[16],5.50 mmHg
same,Intraocular pressure in the left eye,[17],9.25 mmHg
same,Intraocular pressure in the left eye,[18],10.79 mmHg
same,Intraocular pressure in the left eye,[19],11.75 mmHg
same,Intraocular pressure in the left eye,[20],12.13 mmHg
same,Intraocular pressure in the left eye,[21],12.13 mmHg
same,Intraocular pressure in the right eye,[15],19.83 mmHg
same,Intraocular pressure in the right eye,[16],17.46 mmHg
same,Intraocular pressure in the right eye,[17],15.00 mmHg
same,Intraocular pressure in the right eye,[18],12.33 mmHg
same,Intraocular pressure in the right eye,[19],11.25 mmHg
same,Intraocular pressure in the right eye,[20],12.08 mmHg
same,Intraocular pressure in the right eye,[21],12.08 mmHg
